Read-outs that look alike come from different tables or passages of the source. Where a SMILES comes first, the peptide text is derived from it.
Experiments:
[1] = Plasma levels by LC-MS/MS after subcutaneous administration; type: in vivo, rat; conditions: for Cmax: rat, plasma, sc, read-out: maximum plasma levels
[2] = system: substantia nigra levels of DA, DOPAC, HVA, 5-HT, 5-HIAA, and NE; assay: Substantia nigra neurochemistry (RP-HPLC EC) after repeated intranasal administration; type: in vivo, normal Fischer 344 rats; conditions: for Turnover ratio 5-HIAA/5-HT / Turnover ratio (HVA + DOPAC)/DA / Turnover ratio DOPAC/DA / Turnover ratio HVA/DA / 5-HIAA / 5-HT / DA / DOPAC / HVA / NE: 5 days a week for 3 weeks, combined left and right substantia nigra, mean; for 5-HIAA / 5-HT / DA / DOPAC / HVA / NE: wet tissue weight
Experimental: (§1) Groups of 12, 3 month old Fischer 344 rats were intranasally dosed 50 microliters (4 single 12.5 microliter administrations, 2 per nare, 5 minutes between each nare administration) of either vehicle, 1.1 mg/mL, or 3.5 mg/mL of AV6403 [Leu-Ala-Pro-Ala-Glu-Asp-NH2] (SEQ ID NO: 1) once a day for 5 days a week, for 3 weeks (5 consecutive days of dosing, 2 off days, repeated total of 3 times). Following day 21, rats were euthanized and brain tissue was recovered and sections removed and weighed for neurochemical analysis by Reverse-Phase High Pressure Liquid Chromatography Electrochemical detection (RP-HPLC EC).
In the SN [TABLE 3], treatment of AV6403 led to about a 13% increase in DOPAC and a 11% reduction of HVA, depending on the dosage, [FIG. 4A-FIG. 4C] resulting in an increase in dopamine turnover (20% [DOPAC/DA] for 3.5 mg/mL dosage; 23% [(HVA+DOPAC)/DA] for 1.1 mg/mL) relative to saline vehicle treated rats [FIG. 5A-FIG. 5B]. Treatment with 1.1 mg/mL AV6403 decreased 5-HT by 10% in the SN, resulting in a 16% increase in serotonin turnover [5-HIAA/5-HT] [TABLE 4]. The higher dosage (3.5 mg/mL AV6403) increased NE levels in the SN by about 23% versus vehicle treated rats, respectively [TABLE 3].
as §1, with “1.2” for “1.1”, “3.6” for “3.5”, “AV7624 [Glu-Ala-Pro-Phe-Glu-Asp-NH2]” for “AV6403 [Leu-Ala-Pro-Ala-Glu-Asp-NH2] (SEQ ID NO: 1)”, “RP-HPLC EC.” for “Reverse-Phase High Pressure Liquid Chromatography Electrochemical detection (RP-HPLC EC).”
In the SN [TABLE 7], treatment with 3.6 mg/mL AV7624 led to about a 23%, 22%, and a 6% decrease in DA, DOPAC, and HVA [FIG. 9A-FIG. 9C], relative to saline vehicle treated rats, with minor effects on dopamine turnover [FIG. 10A-FIG. 10B]. Treatment with 3.6 mg/mL AV7624 decreased 5-HT by 20% and 5-HIAA by about 18% in the SN [TABLE 7], resulting in a minor effect on serotonin turnover [TABLE 8]. NE levels in the SN were decreased (17% and 13%) by both dosages (1.2 mg/mL and 3.6 mg/mL) versus vehicle treated rats, respectively [TABLE 7].

[3] = rat, in vivo, sc, 100 mg/kg
[4] = system: striatum levels of DA, DOPAC, HVA, 5-HT, 5-HIAA, and NE; assay: Striatum neurochemistry (RP-HPLC EC) after repeated intranasal administration; type: in vivo, normal Fischer 344 rats; conditions: for Turnover ratio 5-H1AA/5-HT / Turnover ratio (HVA + DOPAC)/DA / Turnover ratio DOPAC/DA / Turnover ratio HVA/DA / 5-HIAA / 5-HT / DA / DOPAC / HVA / NE: 5 days a week for 3 weeks, combined left and right striatum, mean; for 5-HIAA / 5-HT / DA / DOPAC / HVA / NE: wet tissue weight
Experimental: as §1
Dopamine [DA], its major metabolites 3,4-Dihydroxy-Phenylacetic Acid (DOPAC) and Homovanillic Acid (HVA), 5-hydroxytryptamine (5-HT, serotonin), its metabolite 5-hydroxyindoleacetic acid (5-HIAA), and norepinephrine (NE) were measured in the striatum and substantia nigra (SN) for each group. In the striatum [TABLE 1], 1.1 mg/mL dosing of AV6403 led to a 20% and 25% reduction of DA and HVA levels [FIG. 1A-FIG. 1C], respectively, resulting in an increase in dopamine turnover (22% [DOPAC/DA] and 16% [[(HVA+DOPAC)/DA]), relative to saline vehicle treated rats [FIG. 2A-FIG. 2B]. […] NE levels were reduced in the striatum with about a 36% reduction for AV6403 1.1 mg/mL dosage versus vehicle [TABLE 1].
as §1, with “1.2” for “1.1”, “3.6” for “3.5”, “AV7624 [Glu-Ala-Pro-Phe-Glu-Asp-NH2]” for “AV6403 [Leu-Ala-Pro-Ala-Glu-Asp-NH2] (SEQ ID NO: 1)”, “RP-HPLC EC.” for “Reverse-Phase High Pressure Liquid Chromatography Electrochemical detection (RP-HPLC EC).”
DA, DOPAC, HVA, 5-HT, 5-HIAA, and NE were measured in the striatum and SN for each group. In the striatum [TABLE 5], 3.6 mg/mL dosing of AV7624 led to an approximate 18%, 39%, and 30% reduction of DA, DOPAC, and HVA levels [FIG. 6A-FIG. 6C], respectively, resulting in an about 18% decrease in dopamine turnover ([DOPAC/DA] and [(HVA+DOPAC)/DA]), relative to saline vehicle treated rats [FIG. 7A-FIG. 7B]. […] NE levels were reduced in the striatum in a dose dependent manner, with about a 32% reduction for the AV7624 3.6 mg/mL dosage versus vehicle [TABLE 5]

MN9D neuronal cells [5] = assay: Protection of mitochondrial potentials against rotenone, MPP+ and TaClo-induced cytotoxicity; type: cell-based; conditions: 100 nM pretreatment, 1, 3, 12, 24 hours
Experimental: (§2) Testing involved permutations of size and diversifying amino acid sequence at each residue position. Sequence design began with Proline-Proline-Glutamate-Alanine-Proline-Alanine-Glutamate-Aspartate-Arginine-Serine-Leucine-NH2. […] These properties were tested using the dopaminergic MN9D neuronal cell line. Each candidate peptide sequence was dissolved in citrate buffer and added to MN9D cells (Choi et al., 1992) that were cultured in Dulbecco's Modified Eagle's Medium [DMEM (containing pyridoxol HCl); Sigma, St. Louis, MO] supplemented with 10% Fetal Bovine serum (HyClone, Logan, UT), 50 U/ml penicillin and streptomycin to a final 100 nM concentration. Using LIVE/DEAD and JC-1 assays in MN9D neuronal cells, individual library sequences were measured for toxicity and loss of mitochondrial potentials at 1 and 3 hours post treatment. […] The remaining sequences were then tested for their ability to provide protection against neurotoxins rotenone, 1-methyl-4-phenylpyridinium (MPP+), and trichloromethyl-1,2,3,4-tetrahydro-β-carboline (TaClo).

MN9D neuronal cells [6] = assay: LIVE/DEAD and JC-1 assays for toxicity and loss of mitochondrial potentials; conditions: 100 nM, 1 and 3 hours post treatment
Experimental: as §2

[7] = SN, depending on the dosage, relative to saline vehicle treated rats
[8] = 1.1 mg/mL intranasal, striatum, relative to saline vehicle treated rats
[9] = 1.1 mg/mL repeated intranasal, striatum, relative to saline treated rats

CC(C)C[C@H](N)C(=O)N[C@@H](C)C(=O)N1CCC[C@H]1C(=O)N[C@@H](C)C(=O)N[C@@H](CCC(=O)O)C(=O)N[C@@H](CC(=O)O)C(N)=O [AV6403, Leu-Ala-Pro-Ala-Glu-Asp-NH2] (H-LAPAED-NH2; N-terminus assumed)
plasma lifetime as compared to the extracellular brain levels ([1]; 30 and 100 mg/kg s.c.): longer lifetime
time of maximum plasma levels post administration ([1]; 30 and 100 mg/kg s.c.): 20 to 40 min
Cmax ([1]; 30 mg/kg s.c.): 3500 ng/mL
Cmax ([1]; 100 mg/kg s.c.): 6000 ng/mL
decrease of 5-HT ([2]; 1.1 mg/mL intranasal, SN): 10%
increase in serotonin turnover [5-HIAA/5-HT] ([2]; 1.1 mg/mL intranasal, SN): 16%
increase in dopamine turnover [(HVA+DOPAC)/DA] ([2]; 1.1 mg/mL intranasal, SN, relative to saline vehicle treated rats): 23%
Turnover ratio 5-HIAA/5-HT ([2]; 1.1 mg/ml intranasal): 0.58
Turnover ratio (HVA + DOPAC)/DA ([2]; 1.1 mg/ml intranasal): 0.37
Turnover ratio DOPAC/DA ([2]; 1.1 mg/ml intranasal): 0.22
Turnover ratio HVA/DA ([2]; 1.1 mg/ml intranasal): 0.15
5-HIAA ([2]; 1.1 mg/ml intranasal): 552 ng/g
5-HT ([2]; 1.1 mg/ml intranasal): 1014 ng/g
DA ([2]; 1.1 mg/ml intranasal): 1122 ng/g
DOPAC ([2]; 1.1 mg/ml intranasal): 232 ng/g
HVA ([2]; 1.1 mg/ml intranasal): 102 ng/g
NE ([2]; 1.1 mg/ml intranasal): 554 ng/g
increase in dopamine turnover [DOPAC/DA] ([2]; 3.5 mg/mL intranasal, SN, relative to saline vehicle treated rats): 20%
increase of NE levels ([2]; 3.5 mg/mL intranasal, SN, versus vehicle treated rats): about 23%
Turnover ratio 5-HIAA/5-HT ([2]; 3.5 mg/ml intranasal): 0.54
Turnover ratio (HVA + DOPAC)/DA ([2]; 3.5 mg/ml intranasal): 0.34
Turnover ratio DOPAC/DA ([2]; 3.5 mg/ml intranasal): 0.24
Turnover ratio HVA/DA ([2]; 3.5 mg/ml intranasal): 0.11
5-HIAA ([2]; 3.5 mg/ml intranasal): 546 ng/g
5-HT ([2]; 3.5 mg/ml intranasal): 1050 ng/g
DA ([2]; 3.5 mg/ml intranasal): 1096 ng/g
DOPAC ([2]; 3.5 mg/ml intranasal): 253 ng/g
HVA ([2]; 3.5 mg/ml intranasal): 113 ng/g
NE ([2]; 3.5 mg/ml intranasal): 644 ng/g
increase in DOPAC [2, 7]: ~13%
reduction of HVA [2, 7]: 11%
half-life [3]: 50 to 60 min
increase in dopamine turnover [(HVA+DOPAC)/DA] [4, 8]: 16%
increase in dopamine turnover [DOPAC/DA] [4, 8]: 22%
reduction of DA levels [4, 8]: 20%
reduction of HVA levels [4, 8]: 25%
reduction of NE levels ([4]; 1.1 mg/mL intranasal, striatum, versus vehicle): ~36%
increase in turnover [5-HIAA/5-HT] [4, 9]: 19%
reduction of 5-HIAA [4, 9]: ~19%
reduction of 5-HT [4, 9]: ~32%
Turnover ratio 5-H1AA/5-HT ([4]; 1.1 mg/ml intranasal): 1.28
Turnover ratio (HVA + DOPAC)/DA ([4]; 1.1 mg/ml intranasal): 0.36
Turnover ratio DOPAC/DA ([4]; 1.1 mg/ml intranasal): 0.28
Turnover ratio HVA/DA ([4]; 1.1 mg/ml intranasal): 0.08
5-HIAA ([4]; 1.1 mg/ml intranasal): 326 ng/g
5-HT ([4]; 1.1 mg/ml intranasal): 257 ng/g
DA ([4]; 1.1 mg/ml intranasal): 9425 ng/g
DOPAC ([4]; 1.1 mg/ml intranasal): 2618 ng/g
HVA ([4]; 1.1 mg/ml intranasal): 699 ng/g
NE ([4]; 1.1 mg/ml intranasal): 45 ng/g
changes in DA turnover ([4]; 3.5 mg/mL intranasal, striatum): minor changes
increase of striatal DA levels ([4]; 3.5 mg/mL intranasal, striatum): 8%
increase of striatal DOPAC levels ([4]; 3.5 mg/mL intranasal, striatum): 11%
Turnover ratio 5-H1AA/5-HT ([4]; 3.5 mg/ml intranasal): 1.11
Turnover ratio (HVA + DOPAC)/DA ([4]; 3.5 mg/ml intranasal): 0.31
Turnover ratio DOPAC/DA ([4]; 3.5 mg/ml intranasal): 0.23
Turnover ratio HVA/DA ([4]; 3.5 mg/ml intranasal): 0.08
5-HIAA ([4]; 3.5 mg/ml intranasal): 437 ng/g
5-HT ([4]; 3.5 mg/ml intranasal): 393 ng/g
DA ([4]; 3.5 mg/ml intranasal): 12475 ng/g
DOPAC ([4]; 3.5 mg/ml intranasal): 2922 ng/g
HVA ([4]; 3.5 mg/ml intranasal): 935 ng/g
NE ([4]; 3.5 mg/ml intranasal): 66 ng/g
change of 5-HT, 5-HIAA and turnover ([4]; higher dosage (3.5 mg/mL) intranasal, striatum, relative to saline treated rats): small increases

C[C@H](NC(=O)[C@@H]1CCCN1C(=O)[C@H](C)NC(=O)[C@@H](N)CCC(=O)O)C(=O)N[C@@H](CCC(=O)O)C(=O)N[C@@H](CC(=O)O)C(N)=O [SEQ ID NO: 11, Glutamate-Alanine-Proline-Alanine-Glutamate-Aspartate-NH2] (H-EAPAED-NH2; N-terminus assumed)
protection against neurotoxins (rotenone, MPP+, TaClo) (MN9D neuronal cells [5]): protection against neurotoxin exposure at all time points measured
toxicity (MN9D neuronal cells [6]): low toxicity

Source: US11833185B2, “Anti-neurodegenerative therapeutic, method of manufacture, and use” (UNIVERSITY OF KENTUCKY RESEARCH FOUNDATION, priority 2017, dated 2023)
